Test results: US20130060023A1, “Compounds useful for treating neurodegenerative disorders” (Satori Pharmaceuticals, Inc., priority 2011, published 2013)
Read-outs that look alike come from different tables or passages of the source.

Legend:
Assay type in all cases: cell-based
Settings in all cases: Homo sapiens, 5 hours at 37° C., 1% DMSO
Aβ-42 = Aβ-42 level in conditioned media of 2B7 cells, MSD 3-PLEX ELISA
Experimental: (§1) Assays were conducted to determine the ability of a Compound of Formula I to modulate […], […], and Aβ-38. μELISA Plates: Human (6E10) Ab 3-PLEX ELISA kits were purchased from Meso Scale Discovery Labs, 9328 Gaither Road, Gaithersburg, Md. 20877 (Catalog Number […]-3). Plates with capture antibodies were blocked for 1-2 hours at room temperature with 150 μL of the manufactures blocking reagent. Conditioned Media: Cultured 2B7 cells in 96 well plate with 250 μL of media per well until confluent; Prepared serial dilutions of compounds in DMSO at 100× the final desired concentration; Washed wells with 2B7 cells 1× with 250 μL of media; Diluted DMSO stocks 1:100 into media: • Added 250 μL of media containing compounds (1% DMSO) to wells with 2B7 cells for 5 hours at 37° C. ELISA Sample Prep: Diluted conditioned media: 1 part media with 1% DMSO and 1 part blocking buffer; 150 μL of the 250 μL of conditioned media were used. Standard Curve Sample Prep: Prepared per manufacturer's protocol (see above). […] Final Wash and Readout: Washed wells 5× with MSD wash buffer; Added 150 μL 2×MSD read buffer; Read with MSD imager. […] Data Analysis: Aβ peptide levels for each peptide were calculated from the standard curve using the MSD software provided with the MSD 2400 Imager. Percent vehicle values for each compound dosage were then calculated and fit to a 4 parameter curve generating IC50 values.

Aβ-38 = Aβ-38 level in conditioned media of 2B7 cells, MSD 3-PLEX ELISA
Experimental: as §1

Aβ-40 = Aβ-40 level in conditioned media of 2B7 cells, MSD 3-PLEX ELISA
Experimental: as §1

Question: With CC(C)[C@@H](OC(=O)N1CCC1)[C@H]1C[C@@H](C)[C@H]2[C@H](O1)[C@H](O)[C@@]1(C)[C@@H]3CC[C@H]4C(C)(C)[C@@H](O[C@H]5CN([C@@H]6CCNC6=O)CCO5)CC[C@@]45C[C@@]35CC[C@]21C [Compound I-1] as the compound, how does the IC50 (Aβ-42; inflection of 4 parameter curve, read-out: Aβ 42 DR IC50 Inflection) read?
Answer: Its IC50 is greater than 5000 nM.

Question: And the IC50 (Aβ-42; read-out: Aβ 42 IC50)?
Answer: Its IC50 is 100 to 500 nM.

Question: And the IC50 (Aβ-38; inflection of 4 parameter curve, read-out: Aβ 38 DR IC50 Inflection)?
Answer: Its IC50 is greater than 5000 nM.

Question: And the IC50 (Aβ-38; read-out: Aβ 38 IC50)?
Answer: The IC50 was 501 to 1000 nM.

Question: What about the IC50 (Aβ-40; inflection of 4 parameter curve, read-out: Aβ 40 DR IC50 Inflection) of the same compound?
Answer: Its IC50 is greater than 5000 nM.

Question: What about the IC50 (Aβ-40; read-out: Aβ 40 IC50) of the same compound?
Answer: Its IC50 is greater than 5000 nM.
